Patent US7132287B2, “Method for neural stem cell differentiation using 5HT-1A agonists” (Psychiatric Genomics, Inc., priority 2001, dated 2006)
Where “and” joins values, the source holds several entries; their conditions need not be identical. Equal entries are not always repeated.

Legend:
[1] = biological target: T1, 5HT1A receptor (Homo sapiens, UniProt P08908); details: cited from earlier work
T1 sequence (P08908 1-422): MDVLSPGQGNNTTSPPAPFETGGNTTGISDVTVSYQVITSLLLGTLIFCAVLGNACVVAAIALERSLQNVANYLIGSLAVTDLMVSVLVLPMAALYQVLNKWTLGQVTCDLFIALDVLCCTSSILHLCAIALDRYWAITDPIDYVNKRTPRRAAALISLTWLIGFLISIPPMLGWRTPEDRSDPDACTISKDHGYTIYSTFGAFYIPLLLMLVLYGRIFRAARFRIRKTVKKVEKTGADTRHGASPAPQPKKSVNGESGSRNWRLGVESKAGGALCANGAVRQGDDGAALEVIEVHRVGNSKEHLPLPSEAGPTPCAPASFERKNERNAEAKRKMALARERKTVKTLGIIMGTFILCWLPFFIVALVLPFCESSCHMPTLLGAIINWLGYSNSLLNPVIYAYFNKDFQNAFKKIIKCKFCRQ

[2] = biological target: T2, 5-HT1A receptors over dopamine D2 receptors (Homo sapiens, UniProt P08908); details: compared to buspirone; cited from earlier work
T2 sequence (P08908 1-422): T1 sequence (P08908 1-422)

[3] = test system: adult rat hippocampus; details: Mahlberg et al., preliminary data; cited from earlier work
[4] = test system: cerebellar stem cells; test: Neuronal differentiation of cerebellar stem cells (TuJ1 positive cells); assay type: cell-based, rat; details: FIG. 2, lane 5, serotonin 5 μM; untreated control less than 20%
Source text: Isolation and quantitation of cerebellar stem cells. Neural stem cells were isolated from rat embryos (obtained from Taconic) at the 19th day of gestation (E19). The rats were sacrificed by inhalation of excess carbon dioxide. The abdomen of the rat was cleaned with 70% ethanol and the uterus was removed quickly and aseptically on the bench top. The uterus was placed in ice cold PBS (GIBCO Cat. # 20012-027) in a 200-ml beaker.
The cerebellar tissue was dissected under a microscope according to the following procedure and collected in a 15-ml tube containing HBSS on ice. The dissection should be completed in 1–2 hours (optimally) and the pH of the HBSS should remain neutral. First, the neck of the embryos was severed towards the bottom and the heads were collected in cold PBS. Next, the skin and scalp was removed from neck and head of the embryo. The brain, including the cerebral cortex, midbrain, cerebellum and some of the spinal cord, was removed by dissection under a microscope and transfered into a clean dish with fresh, cold PBS. The cerebellar region was dissected and cleaned of extraneous tissue, including removal of the meninges, and transferred into cold HBSS in a clean 15 ml tube.
The tube containing the cerebellar tissue was centrifuged at 1,000 RPM for 2 min at 15 C., followed by slow, careful aspiration of the HBSS supernatant (care should be taken to avoid aspirating tissue). (It is best to limit the centrifugation steps as much as possible.) About 1 to 3 ml of DMEM/F12/N2 medium (see below) was immediately added to the remaining tissue; the volume of medium depends on the quantity of the dissected tissue. The tissue was gently triturated about 8 to 10 times using a P-1000 Pipetteman until the tissue was dissociated (as evidenced by cloudy solution), then the tube was incubated in the hood for 5 minutes at room temperature to permit settlement of small particles of undissociated tissue. The supernatant was then transferred into a fresh tube, taking care to avoid the smaller particles of tissue that remained at the bottom of the tube.
Plating and expansion of cerebellar stem cells. The triturated cell suspension of E19 rat cerebellum was seeded into pre-coated 10 cm dishes at 2×10^6 cells per dish. This is denoted as the P0 culture (passage 0). The cells were grown in 5 ml of DMEM/F12/N2 supplemented with 25 mg/L insulin and 10 ng/ml bFGF at 37 C, 5% CO2 and 90% humidity.
Cells were fed daily with 10 ng/ml bFGF. The medium was changed one day after the cells were seeded, and thereafter every other day. On about day 4 of the culture, or when cells reached 70% confluence, the culture was passaged (see “Passage of cerebellar stem cells” below) and seeded into 10 cm dishes at an initial density of 2×10^6 cells per dish. This is denoted as the P1 culture (passage 1). The passaged cells at P1 were grown in DMEM/F12/N2 medium supplemented with 25 mg/L insulin and 10 ng/ml bFGF. The medium was changed every other day.
After two days of culture, some cells were passaged into a P2 culture, and some were seeded in 12-well tissue culture plates for experimental use. One ml of DMEM/F12/N2 medium was used per well of a 12-well plate at 2×10^4 cells per well. Experimental treatments were initiated the day after passage.
(§1) Drug treatments. Stem cells obtained as described above were treated with drugs and subjected to differentiation protocols in the second passage. Cells were plated at a density of 1×10^4 cells per well of a 12-well petridish (Falcon).
Drug treatments were started on the next day. […] The WAY 100635 antagonist compound was used simultaneously with buspirone or serotonin in the blocking experiments.

[5] = test system: cerebellar neural stem cells
Procedure: Cells were treated with the drugs as shown in the presence or absence of the 5HT 1A antagonist WAY 100635 (10 nM), or vasoactive intestinal peptide
Drug treatments were started on the next day. Optimal concentrations were as follows: bFGF: 10 ng/ml; BDNF (R&D Systems, Minneapolis, Minn.): 20 ng/ml; buspirone (Sigma): 100–1000 nM; or Serotonin (Sigma): 5–10 μM; buspirone or serotonin and the 5HT1A antagonist WAY100635 (Sigma): 10 nM. The WAY 100635 antagonist compound was used simultaneously with buspirone or serotonin in the blocking experiments. Positive and negative control cultures were those treated with BDNF and FGF alone, respectively.
Untreated cells were used as a negative control.

[6] = biological target: T1, 5HT1A receptor; details: cited from earlier work; remark: listed apart in the source
[7] = test system: cortical neural stem cells; test: Neuronal differentiation of cortical neural stem cells (β tubulin III / TuJ-1 immunofluorescence); assay type: cell-based, rat; details: 6 days
Source text: Isolation of cortical and striatal stem cells. Timed pregnant Sprague Dawley rats obtained from Taconic at embryonic age E14-E15 were sacrificed as described above and the uterus removed and placed in ice cold PBS in a 10 cm petridish. After rinsing the uterus in PBS, embryos were removed from the uterus, rinsed in PBS and collected in cold HBSS (buffered with HEPES and sodium bicarbonate) in a 10 cm petridish and placed on ice.
The cortex and striatum was dissected under a microscope and collected in a 15 ml tube of HBSS, on ice. Removal of meninges is not possible at this age, and no attempt was made to do so. If the dissected tissue was in large enough chunks and settle to the bottom of the tube, no centrifugation was performed. Alternatively, the tube was centrifuged at 1000 rpm for 5 minutes to pellet the tissue. Following centrifugation, the 15 ml tube containing the tissue was sprayed with 70% ethanol and taken into the sterile hood.
The HBSS was aspirated and replaced with 10 ml of DMEM/F12. The tissue was collected at the bottom of the tube by gravity or centrifugation, medium was aspirated, and 1 ml of DMEM/F12 was to the tissue. Cells were dissociated by trituration as described above, followed by addition of 5 ml of DMEM/F12 and a second round of trituration. […] The tubes were placed standing 5–10 minutes in the hood to allow larger particles and meninges to settle. While the meninges were settling, a cell count was made. 10 μl of the cell suspension is diluted with trypan blue and counted in a hemocytometer. Cells were counted in the four outer chambers with the larger squares, and cell count calculated assuming that the volume enclosed in each of the chambers was […].
Plating, expansion and passaging of cortical and striatal stem cells A generous amount of the triturated cell suspension was left in the original 15 ml tube to avoid fibroblast contamination in cultures. About 4–5 ml of the 6 ml of cells suspension was used for plating. Cells were plated at a concentration of approximately 1×10^6 per 10 cm dish. This culture is designated P0 (passage 0).
Following plating cells were expanded for about 3–4 days. The cultures were never permitted to reach more than 70% confluency. Cultures were then passaged as follows: 5 ml of HBSS was added to each 10 cm dish and the cells incubated at 37° C. for 15–45 minutes, or until sufficient numbers of the stem cells were rounded up. It is not expected that all cells in the culture will round up as there are several cell types in the culture at P0. The pH of the HBSS should be neutral at all times during this incubation. Cells were then removed from the dish by pipetting with a 5 ml pipette, or by scraping with a policeman, collected in a 15 or 50 ml conical tube, and centrifuged at 1000 g for 5 minutes. Cells were gently re-suspended in medium, counted, and plated at a density of about 1×10^6 per 10 cm dish.
as §1
Drug treatments were started on the next day. […] The WAY 100635 antagonist compound was used simultaneously with buspirone or serotonin in the blocking experiments. Positive and negative control cultures were those treated with BDNF and FGF alone, respectively.
Cells were treated with the designated concentrations of drugs or combinations thereof, daily, and were fed every alternate day with fresh medium. Experiments were maintained for about 6–10 days in most cases.

**Q.** Which “affinity for the 5HT1A receptor” value [1] does the source give for `COc1ccc2[nH]cc(CCN(C)C)c2c1` [5-methoxy-N,N-dimethyltryptamine] here?
**A.** Its value is “high affinity”.

**Q.** Which “selectivity for 5-HT1A receptors over dopamine D2 receptors” value [2] does the source give for `CC1(C)CC(=O)N(CCCCN2CCN(c3ncccn3)CC2)C(=O)C1` [gepirone] here?
**A.** Its value is “much greater selectivity”.

**Q.** For `CNCCC(Oc1ccc(C(F)(F)F)cc1)c1ccccc1` (centres unmarked) [fluoxetine], which “neurogenesis in adult rat hippocampus” value [3] is on record?
**A.** The value was “increases neurogenesis”.

**Q.** With `NCCc1c[nH]c2ccc(O)cc12` [serotonin, 5-hydroxytryptamine] as the molecule, how does the differentiation of neurons [4] read?
**A.** Its differentiation of neurons is 60%.

**Q.** Which “effect of antagonist on buspirone-induced neuronal differentiation” value ([5]; WAY100635 10 nM added simultaneously with buspirone 500 nM, FIG. 2 lane 4) does the source give for `COc1ccccc1N1CCN(CCN(C(=O)C2CCCCC2)c2ccccn2)CC1` [WAY100635, N-[2-[4-(2-Methoxyphenyl)-1-piperazinyl]ethyl]-N-2-pyridinylcyclohexanecarboxamide] here?
**A.** Its value is “inhibited neuronal differentiation”.

**Q.** And the “effect of antagonist on serotonin-induced neuronal differentiation” value ([5]; WAY100635 10 nM added simultaneously with serotonin 5 μM, FIG. 2 lane 6)?
**A.** Its value is “inhibited neuronal differentiation”.

**Q.** And the “effect of antagonist on vasoactive intestinal peptide-induced neuronal differentiation” value ([5]; WAY100635 10 nM added to VIP-treated cells, FIG. 2 lane 8)?
**A.** The value was “did not prevent or inhibit neuronal differentiation”.

**Q.** For `CCCN(CCC)[C@@H]1CCc2ccc3[nH]c(C#N)cc3c2C1` [U-92016A], which “intrinsic activity as 5-HT1A receptor agonist” value [6] is on record?
**A.** Its value is “exceptionally high degree of intrinsic activity”.

**Q.** What does the source list for “bFGF: recombinant human basic fibroblast growth factor (R&D Systems), mitogenic growth factor; negative control”?
**A.** Total No. of Cells ([7]; 10 ng/ml bFGF): 7330 and 10210; No. Fluorescent Cells ([7]; 10 ng/ml bFGF, TuJ-1 staining): 33 and 65

B1: BDNF: brain-derived neurotrophic factor (R&D Systems), a known neuronal differentiation factor; positive control (protein, UniProt P23560 19-247, looked up)
Neurotrophic factor BDNF …: APMKEANIRGQGGLAYPGVRTHGTLESVNGPKAGSRGLTSLADTFEHVIEELLDEDQKVRPNEENNKDADLYTSRVMLSSQVPLEPPLLFLLEEYKNYLDAANMSMRVRRHSDPARRGELSVCDSISEWVTAADKKTAVDMSGGTVTVLEKVPVSKGQLKQYFYETKCNPMGYTKEGCRGIDKRHWNSQCRTTQSYVRALTMDSKKRIGWRFIRIDTSCVCTLTIKRGR
**Q.** Which “Total No. of Cells” value ([7]; 20 ng/ml BDNF) does the source give for B1 here?
**A.** Its value is 624 and 1006.
